Test results: patent US20140296281A1, “METHODS FOR SCREENING A BRCA1 LOSS-OF-FUNCTION IN A SUBJECT SUFFERING FROM A CANCER” (INSERM (INSTITUT NATIONAL DE LA SANTE ET DE LA RECHERCHE …, priority 2011, published 2014)
“Also recorded” adds a separate entry of the source.

Key:
[1] = molecular target: MAPK phosphorylated p38 (P-p38) (Homo sapiens, UniProt Q16539); assay: Western blot of phosphorylated MAPK p38; type: cell-based; settings: MCF-7, in presence of SB
Procedure: (§1) These five antibodies were then detected with an anti-rabbit HRP-conjugated secondary antibody (1:5000) (Santa Cruz, Heidelberg, Germany). Actin expression was analyzed with the human anti-β-actin mouse monoclonal primary antibody (1:20 000) (β-actin (AC-15); A5441, Sigma-Aldrich, St Quentin Fallavier, France), and then detected with an anti-mouse HRP-conjugated secondary antibody (1:2000) (Sigma-Aldrich, St Quentin Fallavier, France).

GR P-Ser211 = assay: Western blot of GR P-Ser211; type: cell-based, human
Procedure: […] Control cells were treated with ethanol as vehicle (1:1000). Treatments were carried out in a phenol red free medium containing 5% dextran-charcoal-stripped serum for a period of 24 h in MCF-7 and MDA-MB231 and 48 h in HBE cells.
as §1

BRCA1 = settings: mouse mammary cells (Antonova and Mueller 2008); cited from earlier work

Sequence of MAPK phosphorylated p38 (P-p38) (Q16539 whole entry): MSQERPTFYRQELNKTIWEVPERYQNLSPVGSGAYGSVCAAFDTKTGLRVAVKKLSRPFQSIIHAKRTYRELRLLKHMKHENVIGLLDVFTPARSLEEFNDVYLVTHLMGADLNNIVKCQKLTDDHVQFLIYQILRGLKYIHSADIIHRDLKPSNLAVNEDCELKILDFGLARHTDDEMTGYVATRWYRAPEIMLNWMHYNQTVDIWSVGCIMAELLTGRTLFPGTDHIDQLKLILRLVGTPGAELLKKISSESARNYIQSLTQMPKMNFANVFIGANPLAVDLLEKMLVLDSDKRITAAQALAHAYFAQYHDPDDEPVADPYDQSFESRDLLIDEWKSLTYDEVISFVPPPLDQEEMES

SMILES | levels of P-p38 [1] | decrease of GR P-Ser211 level (GR P-Ser211; MCF-7, DEX+SB compared to DEX treatment alone) | GR P-Ser211 level (GR P-Ser211; MCF-7, cells exposed to SB compared to basal conditions, even with BRCA1 overexpression) | BRCA1 expression (BRCA1)
Oc1ccc(-c2nc(-c3ccncc3)c(-c3ccc(F)cc3)[nH]2)cc1 [SB] | increased | also observed | constant decrease | 
C[C@]12CCC(=O)C=C1CC[C@@H]1[C@@H]2[C@@H](O)C[C@@]2(C)[C@H]1CC[C@]2(O)C(=O)CO [hydrocortisone] |  |  |  | repress; also recorded: decrease
